One data set deals with cGMP PDE V (Homo sapiens, UniProt O76074). The experiment in a line: cyclic nucleotide PDE V activity, PDE SPA assay kit, inhibition study. In kind it is biochemical. The protocol:
The cyclic nucleotide PDE V activity was determined using PDE SPA assay kit (Amersham Pharmacia biotech, UK). Each reaction mixture (100 μL total volume) consisted of the column elute containing PDE V (10 μL), [^3H]-cGMP (5 μCi/mL), bovine serum albumin (0.5 mg/mL), and MgCl2 (5 mM) in Tris-HCl buffer (15 mM, pH 7.5). The reactions were initiated by the addition of PDE V and the samples were incubated at 30° C. for 30 min, after which the reaction was stopped by the addition of 50 μL of SPA beads. The reaction tube was then settled for 20 min and was counted on the scintillation counter (Tri-carb 1500, Packard, USA). For the inhibition study of PDE V activity, the sildenafil and test compounds were dissolved in dimethyl sulfoxide (DMSO) and was diluted with distilled water. The final concentration of DMSO was less than 0.2% (v/v).
The following table illustrate the in vitro activities for a range of the compounds of the invention as inhibitors of cGMP PDE V.

Where [1] appears, read: in vitro inhibition of cGMP PDE V, [3H]-cGMP, 30° C., 30 min, read-out: IC50.

Among the data in patent publication US6962911B2, “Pyrrolopyrimidinone derivatives, process of preparation and use” (SK Chemicals Co., Ltd., priority 2000, dated 2005) are IC50 and melting point values, retold here.

Where a name gives a salt, the structure may show the parent alone. Read-outs that look alike come from different tables or passages of the source.

One may read the IC50 as the midpoint of a concentration-inhibition curve. `CCCc1cn(C)c2c(=O)[nH]c(-c3cc(S(=O)(=O)N4CCN(CCCCl)CC4)ccc3OCC)nc12` [Example 35, 5-(5-(4-(3-chloropropyl)piperazinylsulfonyl)-2-ethoxyphenyl)-1-methyl-3-n-propyl-1,6-dihydro-7H-pyrrolo[4,3-d]pyrimidin-7-one hydrochloride]: the IC50 at cGMP PDE V (setting [1]) came to 0.49 nM.
Broadly, the melting point is the temperature, or range, at which the solid turns liquid. `CCCc1cn(C)c2c(=O)[nH]c(-c3cc(S(=O)(=O)N4CCN(CCCl)CC4)ccc3OCC)nc12` [Example 33, 5-(5-(4-(2-chloroethyl)piperazinylsulfonyl)-2-ethoxyphenyl)-1-methyl-3-n-propyl-1,6-dihydro-7H-pyrrolo[4,3-d]pyrimidin-7-one]: the melting point is 226 °C (dec.). This molecule also yielded an IC50 against cGMP PDE V of 2.06 nM.
Take `CCCOc1ccc(S(=O)(=O)N2CCN(Cc3nnn[nH]3)CC2)cc1-c1nc2c(CCC)cn(C)c2c(=O)[nH]1` [Example 117, 5-(2-n-propoxy-5-(4-(1H-tetrazol-5-ylmethyl)piperazinylsulfonyl)phenyl)-1-methyl-3-n-propyl-1,6-dihydro-7H-pyrrolo[4,3-d]pyrimidin-7-one]: the melting point is 150 °C (dec.). Also, the IC50 at cGMP PDE V (setting [1]) stood at 0.7 nM.
For `CCCc1cn(C)c2c(=O)[nH]c(-c3cc(S(=O)(=O)N4CCC(CC(=O)O)CC4)ccc3OCC)nc12` [Example 106, 5-(2-ethoxy-5-(4-(hydroxycarbonylmethyl)piperidinylsulfonyl)phenyl)-1-methyl-3-n-propyl-1,6-dihydro-7H-pyrrolo[4,3-d]pyrimidin-7-one], the melting point fell in the range of 138.5 to 139.5 °C. For the same molecule, on cGMP PDE V (setting [1]), the IC50 was 0.27 nM.
Take `CCCc1cn(C)c2c(=O)[nH]c(-c3cc(S(=O)(=O)N4CCN(Cc5nnn[nH]5)CC4)ccc3OCC)nc12` [Example 116]: the melting point is 188 °C (dec.). Also, on cGMP PDE V (setting [1]), the IC50 was 0.28 nM.
Take `CCCc1cn(C)c2c(=O)[nH]c(-c3cc(S(=O)(=O)N4CCN(CCCF)CC4)ccc3OCC)nc12` [Example 19, 5-(2-ethoxy-5-(4-(3-fluoropropyl)piperazinylsulfonyl)phenyl)-1-methyl-3-n-propyl-1,6-dihydro-7H-pyrrolo[4,3-d]pyrimidin-7-one sulfuric acid]: on cGMP PDE V (setting [1]), the IC50 turned out to be 0.64 nM.
For `CCCOc1ccc(S(=O)(=O)N2CCC(C(=O)O)CC2)cc1-c1nc2c(CCC)cn(C)c2c(=O)[nH]1` [Example 105], the melting point was in the range of 155 to 155.5 °C. Further, the IC50 on cGMP PDE V (setting [1]) was 0.71 nM.
